Measured values: PubChem BioAssay AID1963870 (Molecular Pharmacology Branch, DTP, NCI, 2024)
Several values for one entry are separate records, joined by “and”; a condition that tells them apart may be missing. Equal entries are not always repeated.

Test system: 292921-168-R-J2-PDC KRAS tumor spheroid viability
Experiment: Anticancer human tumor 292921-168-R-J2-PDC patient-derived pancreatic carcinoma cell line growth inhibition [KRAS2]
Conditions: spheroids with HUVEC and MSC; for viability, T/C: stronger effect = lower value
Summary of the method: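 Combination screen of spheroid viability in tumor-cell co-cultures with endothelial (HUVEC) and mesenchymal stem cell stroma. Each agent was tested in half-log dilutions, topping at clinical Cmax or at 10 microM without a known Cmax.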

[1] = curve of first compound, second compound 0.1 µM
[2] = curve of first compound, second compound 0.316 µM
[3] = curve of first compound, second compound 1 µM
[4] = curve of first compound, second compound 3.16 µM
[5] = curve of first compound, second compound 10 µM
[6] = second compound 0.1 µM, first compound 0.00316 µM
[7] = second compound 0.1 µM, first compound 0.01 µM
[8] = second compound 0.1 µM, first compound 0.0316 µM
[9] = second compound 0.1 µM, first compound 0.1 µM
[10] = second compound 0.1 µM, first compound 0.316 µM
[11] = second compound 0.1 µM, first compound 1 µM
[12] = second compound 0.316 µM, first compound 0.00316 µM
[13] = second compound 0.316 µM, first compound 0.01 µM
[14] = second compound 0.316 µM, first compound 0.0316 µM
[15] = second compound 0.316 µM, first compound 0.1 µM
[16] = second compound 0.316 µM, first compound 0.316 µM
[17] = second compound 0.316 µM, first compound 1 µM
[18] = second compound 1 µM, first compound 0.00316 µM
[19] = second compound 1 µM, first compound 0.01 µM
[20] = second compound 1 µM, first compound 0.0316 µM
[21] = second compound 1 µM, first compound 0.1 µM
[22] = second compound 1 µM, first compound 0.316 µM
[23] = second compound 1 µM, first compound 1 µM
[24] = second compound 3.16 µM, first compound 0.00316 µM
[25] = second compound 3.16 µM, first compound 0.01 µM
[26] = second compound 3.16 µM, first compound 0.0316 µM
[27] = second compound 3.16 µM, first compound 0.1 µM
[28] = second compound 3.16 µM, first compound 0.316 µM
[29] = second compound 3.16 µM, first compound 1 µM
[30] = second compound 10 µM, first compound 0.01 µM
[31] = second compound 10 µM, first compound 0.0316 µM
[32] = second compound 10 µM, first compound 0.1 µM
[33] = second compound 10 µM, first compound 0.316 µM
[34] = second compound 10 µM, first compound 1 µM
[35] = second compound 0.1 µM, first compound 3.16 µM
[36] = second compound 0.316 µM, first compound 3.16 µM
[37] = second compound 1 µM, first compound 3.16 µM
[38] = second compound 3.16 µM, first compound 3.16 µM
[39] = second compound 10 µM, first compound 3.16 µM
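Further: drug exposure lasted seven days after spheroids formed for three days.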
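Wherever viability, T/C is given: percent of DMSO vehicle control viability which is 100%.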

COc1cc2nccc(Oc3ccc(NC(=O)C4(C(=O)Nc5ccc(F)cc5)CC4)cc3)c2cc1OC
viability, T/C (compound 0.0316 µM): 104% (3×) and 112% and 103%
viability, T/C (compound 0.1 µM): 99.3% [middle of 5 runs]
viability, T/C (compound 0.316 µM): 96.6% [middle of 5 runs]
viability, T/C (compound 3.16 µM): 33.9% [middle of 5 runs]
viability, T/C (compound 10 µM): 19.6% [middle of 5 runs]
IC50 (curve of compound): 2.1 µM [middle of 5 runs]

CCN1CCN(Cc2ccc(Nc3ncc(F)c(-c4cc(F)c5nc(C)n(C(C)C)c5c4)n3)nc2)CC1 + CNCc1ccccc1-c1csc(C(C)Nc2nc(C)nc3cc(OC)c(OC)cc23)c1
IC50 [1]: 19.8 nM
IC50 [2]: 16.1 nM
IC50 [3]: 4.44 nM
IC50 [4]: < 3.16 nM
IC50 [5]: < 3.16 nM
viability, T/C [6]: 76.5%
viability, T/C [7]: 60.9%
viability, T/C [8]: 42%
viability, T/C [9]: 30.9%
viability, T/C [10]: 24.8%
viability, T/C [11]: 19.1%
viability, T/C [12]: 73.2%
viability, T/C [13]: 57.4%
viability, T/C [14]: 37.1%
viability, T/C [15]: 31.8%
viability, T/C [16]: 23.6%
viability, T/C [17]: 12.3%
viability, T/C [18]: 54.3%
viability, T/C [19]: 42.6%
viability, T/C [20]: 28.6%
viability, T/C [21]: 22.3%
viability, T/C [22]: 21.3%
viability, T/C [23]: 0.5%
viability, T/C [24]: 0.12%
viability, T/C [25]: 0.07%
viability, T/C [26]: 0.04%
viability, T/C [27]: 0.05%
viability, T/C [28]: 0.1%
viability, T/C [29]: 0.1%
viability, T/C (second compound 10 µM, first compound 0.00316 µM): 0.11%
viability, T/C [30]: 0.11%
viability, T/C [31]: 0.08%
viability, T/C [32]: 0.08%
viability, T/C [33]: 0.08%
viability, T/C [34]: 0.13%

Cn1ncnc1[C@H]1c2n[nH]c(=O)c3cc(F)cc(c23)N[C@@H]1c1ccc(F)cc1 + C=CC(=O)N1CCN(c2nc(OCC3CCCN3C)nc3c2CCN(c2cccc4cccc(C)c24)C3)CC1CC#N
IC50 (curve of first compound, second compound 0.0316 µM): > 100 nM
IC50 [1]: > 100 nM
IC50 [2]: 81.9 nM
IC50 [3]: < 0.316 nM
IC50 [4]: < 0.316 nM
viability, T/C (second compound 0.0316 µM, first compound 0.000316 µM): 99.5%
viability, T/C (second compound 0.0316 µM, first compound 0.001 µM): 93%
viability, T/C (second compound 0.0316 µM, first compound 0.00316 µM): 93.2%
viability, T/C (second compound 0.0316 µM, first compound 0.01 µM): 93.6%
viability, T/C (second compound 0.0316 µM, first compound 0.0316 µM): 81.7%
viability, T/C (second compound 0.0316 µM, first compound 0.1 µM): 67.3%
viability, T/C (second compound 0.1 µM, first compound 0.000316 µM): 96.7%
viability, T/C (second compound 0.1 µM, first compound 0.001 µM): 93.5%
viability, T/C [6]: 91.7%
viability, T/C [7]: 83.6%
viability, T/C [8]: 77.6%
viability, T/C [9]: 63.7%
viability, T/C (second compound 0.316 µM, first compound 0.000316 µM): 88.1%
viability, T/C (second compound 0.316 µM, first compound 0.001 µM): 82.1%
viability, T/C [12]: 72.9%
viability, T/C [13]: 74.9%
viability, T/C [14]: 65%
viability, T/C [15]: 46.4%
viability, T/C (second compound 1 µM, first compound 0.000316 µM): 42.1%
viability, T/C (second compound 1 µM, first compound 0.001 µM): 42.9%
viability, T/C [18]: 37.1%
viability, T/C [19]: 32.5%
viability, T/C [20]: 29.8%
viability, T/C [21]: 28.3%
viability, T/C (second compound 3.16 µM, first compound 0.000316 µM): 0.3%
viability, T/C (second compound 3.16 µM, first compound 0.001 µM): 0.12%
viability, T/C [24]: 0.12%
viability, T/C [25]: 0.11%
viability, T/C [26]: 0.13%
viability, T/C [27]: 0.17%

COc1cc2nccc(Oc3ccc(NC(=O)C4(C(=O)Nc5ccc(F)cc5)CC4)cc3)c2cc1OC + CC1OCC2(CCN(c3cnc(Sc4ccnc(N)c4Cl)c(N)n3)CC2)C1N
IC50 [1]: 1610 nM
IC50 [2]: 569 nM
IC50 [3]: < 31.6 nM
IC50 [4]: < 31.6 nM
IC50 [5]: < 31.6 nM
viability, T/C [8]: 81%
viability, T/C [9]: 82.6%
viability, T/C [10]: 72%
viability, T/C [11]: 65.9%
viability, T/C [35]: 28.9%
viability, T/C (second compound 0.1 µM, first compound 10 µM): 19%
viability, T/C [14]: 60.9%
viability, T/C [15]: 61.4%
viability, T/C [16]: 54.6%
viability, T/C [17]: 45.1%
viability, T/C [36]: 25.6%
viability, T/C (second compound 0.316 µM, first compound 10 µM): 17.1%
viability, T/C [20]: 42.2%
viability, T/C [21]: 45.7%
viability, T/C [22]: 26.1%
viability, T/C [23]: 33%
viability, T/C [37]: 22.5%
viability, T/C (second compound 1 µM, first compound 10 µM): 13%
viability, T/C [26]: 35.4%
viability, T/C [27]: 33.5%
viability, T/C [28]: 35.5%
viability, T/C [29]: 26.8%
viability, T/C [38]: 17.8%
viability, T/C (second compound 3.16 µM, first compound 10 µM): 12%
viability, T/C [31]: 31.7%
viability, T/C [32]: 30.2%
viability, T/C [33]: 31.7%
viability, T/C [34]: 24.9%
viability, T/C [39]: 14.3%
viability, T/C (second compound 10 µM, first compound 10 µM): 9.5%

C=CC(=O)N1CCN(c2nc(OCC3CCCN3C)nc3c2CCN(c2cccc4cccc(C)c24)C3)CC1CC#N (stereo not drawn)
IC50 (compound alone, run of 08/26/2021): 821 nM [middle of 5 runs]
IC50 (compound alone, run of 09/02/2021): 647 nM [middle of 5 runs]

CC(=O)OC12COC1CC(O)C1(C)C(=O)C(O)C3=C(C)C(OC(=O)C(O)C(NC(=O)OC(C)(C)C)c4ccccc4)CC(O)(C(OC(=O)c4ccccc4)C21)C3(C)C (stereo not drawn) + CC1OCC2(CCN(c3cnc(Sc4ccnc(N)c4Cl)c(N)n3)CC2)C1N
IC50 [1]: < 10 nM
IC50 [2]: < 10 nM
IC50 [3]: < 10 nM
IC50 [4]: < 10 nM
IC50 [5]: < 10 nM
viability, T/C [7]: 14.3%
viability, T/C [8]: 14.6%
viability, T/C [9]: 12.2%
viability, T/C [10]: 12.4%
viability, T/C [11]: 13.6%
viability, T/C [35]: 16.8%
viability, T/C [13]: 14.6%
viability, T/C [14]: 11.3%
viability, T/C [15]: 10.6%
viability, T/C [16]: 10.7%
viability, T/C [17]: 12.2%
viability, T/C [36]: 13.9%
viability, T/C [19]: 16.9%
viability, T/C [20]: 17.1%
viability, T/C [21]: 13.4%
viability, T/C [22]: 13.9%
viability, T/C [23]: 14.2%
viability, T/C [37]: 22.1%
viability, T/C [25]: 13.1%
viability, T/C [26]: 11.6%
viability, T/C [27]: 10.9%
viability, T/C [28]: 10.4%
viability, T/C [29]: 13.2%
viability, T/C [38]: 13.8%
viability, T/C [30]: 13.7%
viability, T/C [31]: 11.8%
viability, T/C [32]: 11.8%
viability, T/C [33]: 11%
viability, T/C [34]: 13.4%
viability, T/C [39]: 13.7%
